Data published in PMC2605521 (Journal of medicinal chemistry, 2008).
Entries after “also recorded” stand apart in the source; their conditions may differ. Like-named read-outs stand apart in the source and are kept apart here.

Assays:
μ-receptors [1] = target: T1, μ-receptors (Homo sapiens, UniProt P35372); assay: biochemical; type: biochemical
δ receptors = δ receptors (Homo sapiens, UniProt P41143); assay: [35S]GTP-γ-S functional assay, δ-antagonism; type: biochemical
κ receptors = κ receptors (Homo sapiens, UniProt P41145); assay: [35S]GTP-γ-S functional assay, κ-antagonism; type: biochemical; details: for κ-antagonist activity in the functional assay (in words): [35S]GTPγS assay
Chain of κ receptors (P41145 whole entry): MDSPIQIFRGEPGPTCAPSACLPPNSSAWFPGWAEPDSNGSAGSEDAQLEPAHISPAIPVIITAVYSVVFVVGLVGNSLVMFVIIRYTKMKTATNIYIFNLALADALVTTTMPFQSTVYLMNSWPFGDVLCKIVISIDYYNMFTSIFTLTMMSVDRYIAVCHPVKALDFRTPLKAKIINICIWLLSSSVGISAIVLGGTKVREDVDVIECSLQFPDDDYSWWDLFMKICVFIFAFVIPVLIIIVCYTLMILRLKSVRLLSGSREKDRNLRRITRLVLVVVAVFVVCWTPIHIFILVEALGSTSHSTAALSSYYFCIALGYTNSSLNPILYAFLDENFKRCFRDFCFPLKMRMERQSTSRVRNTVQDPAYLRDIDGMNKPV

δ-opioid receptor = δ-opioid receptor (Homo sapiens, UniProt P41143); assay: [125I]Ioxy binding, CHO cells expressing δ-opioid receptor
Chain of δ-opioid receptor (P41143 whole entry): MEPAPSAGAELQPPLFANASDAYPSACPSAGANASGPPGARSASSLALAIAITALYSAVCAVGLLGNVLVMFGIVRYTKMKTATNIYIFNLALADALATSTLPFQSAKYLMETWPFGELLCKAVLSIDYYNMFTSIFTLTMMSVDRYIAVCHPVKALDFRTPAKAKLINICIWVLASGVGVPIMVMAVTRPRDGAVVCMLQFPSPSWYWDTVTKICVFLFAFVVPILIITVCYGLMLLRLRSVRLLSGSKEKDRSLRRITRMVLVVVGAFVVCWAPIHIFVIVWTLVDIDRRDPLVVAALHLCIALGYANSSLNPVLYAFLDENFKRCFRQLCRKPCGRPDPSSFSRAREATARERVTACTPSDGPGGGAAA

μ-opioid receptor [2] = target: T2, μ-opioid receptor (Homo sapiens, UniProt P35372); assay: [125I]Ioxy binding, CHO cells expressing μ-opioid receptor; details: for affinity for μ-receptors (in words): compared with the N-methyl analogues 46 and 47
T2 sequence (P35372 whole entry, species assumed): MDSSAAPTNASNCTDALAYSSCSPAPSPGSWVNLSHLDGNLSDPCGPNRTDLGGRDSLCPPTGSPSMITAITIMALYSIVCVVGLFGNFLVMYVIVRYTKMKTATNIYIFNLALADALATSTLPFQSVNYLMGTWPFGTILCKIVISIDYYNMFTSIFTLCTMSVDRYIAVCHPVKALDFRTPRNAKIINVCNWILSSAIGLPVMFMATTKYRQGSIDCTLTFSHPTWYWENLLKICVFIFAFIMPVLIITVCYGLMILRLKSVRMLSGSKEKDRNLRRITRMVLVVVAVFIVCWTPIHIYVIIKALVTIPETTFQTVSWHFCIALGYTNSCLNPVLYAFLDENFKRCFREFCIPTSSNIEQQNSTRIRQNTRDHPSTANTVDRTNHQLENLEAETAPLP

μ-opioid receptor [3] = target: T2, μ-opioid receptor; details: read-out: Ki at μ-receptors; earlier work; cited from earlier work
μ-receptors [4] = target: T1, μ-receptors; details: [35S]GTPγS assay; cited from earlier work
[5] = cited from earlier work

T1 sequence (P35372 whole entry, species assumed): as above
Chain of δ receptors (P41143 whole entry): as the sequence (P41143 whole entry) above

Oc1ccc2c(c1)[C@@]13CCN(CCc4ccccc4)[C@@H](CC[C@H]1O2)C3 (racemic) [Compound 16, (4R*,6aS*,11bR*)-2,3,4,5,6,6a-Hexahydro-3-phenethyl-1H-4,11b-methanobenzofuro[3,2-d]azocine-10-ol]
Kb (μ-receptors [1]): 260 ± 79 nM | Kb (δ receptors): 17000 ± 4200 nM | Kb (κ receptors): 19 ± 5.2 nM | κ-antagonist activity in the functional assay (in words) (κ receptors): moderately active κ-antagonists; also recorded: moderately potent κ-receptor antagonists

CN1CC[C@@]23C[C@@H]1CC[C@H]2Oc1c(O)cccc13 (racemic) [Compound 20, (4R*,6aS*,11bR*)-2,3,4,5,6,6a-Hexahydro-3-methyl-1H-4,11b-methanobenzofuro[3,2-d]azocine-8-ol]
Ki (δ-opioid receptor): > 10000 nM

Oc1cccc2c1O[C@@H]1CC[C@H]3C[C@@]21CCN3CCc1ccccc1 (racemic) [Compound 24, (4R*,6aS*,11bR*)-2,3,4,5,6,6a-Hexahydro-3-phenethyl-1H-4,11b-methanobenzofuro[3,2-d]azocine-8-ol]
Kb (μ-receptors [1]): 77 ± 13 nM | μ-antagonist activity in the functional assay (in words) (μ-receptors [1]): weak μ-antagonist activity | Kb (δ receptors): 8000 ± 1500 nM | Kb (κ receptors): 21 ± 3.4 nM | κ-antagonist activity in the functional assay (in words) (κ receptors): moderately active κ-antagonists; also recorded: moderately potent κ-receptor antagonists

CN1C[C@@H]2Oc3c(O)cccc3[C@@]23CCC[C@@H]1C3 (racemic) [Compound 46, (3R*,6aS*,11aR*)-1,3,4,5,6,11a-Hexahydro-2-methyl-2H-3,6a-methanobenzofuro[2,3-c]azocin-10-ol]
Ki (μ-opioid receptor [2]): 8000 ± 406 nM

CN1C[C@@H]2Oc3ccc(O)cc3[C@@]23CCC[C@@H]1C3 (racemic) [Compound 47, (3R*,6aS*,11aR*)-1,3,4,5,6,11a-Hexahydro-2-methyl-2H-3,6a-methanobenzofuro [2,3-c]azocin-8-ol]
Ki (μ-opioid receptor [2]): 2930 ± 203 nM

Oc1cccc2c1O[C@H]1CN(CCc3ccccc3)[C@@H]3CCC[C@]21C3 (racemic) [Compound 51, (3R*,6aS*,11aR*)-1,3,4,5,6,11a-Hexahydro-2-phenethyl-2H-3,6a-methanobenzofuro [2,3-c]azocin-10-ol]
affinity for μ-receptors (in words) (μ-opioid receptor [2]): only slight affinity

Oc1ccc2c(c1)[C@]13CCC[C@H](C1)N(CCc1ccccc1)C[C@@H]3O2 (relative stereo) [Compound 52]
affinity for μ-receptors (in words) (μ-opioid receptor [2]): only slight affinity

Oc1cccc2c1O[C@H]1[C@H]3CCC[C@@]21CCN3CCc1ccccc1 (single isomer, unassigned) [(−)-N-phenethyl ortho-f isomer]
Ki (μ-opioid receptor [3]): 7 nM | potency as μ-opioid antagonist (in words) (μ-receptors [4]): more potent than naloxone

Oc1cccc2c1O[C@H]1[C@@H]3CCC[C@]21CCN3CCc1ccccc1 (single isomer, unassigned) [(−)-N-phenethyl para-e isomer]
antinociceptive activity (in words) [5]: morphine-like antinociceptive
